According to patent publication US20240199635A1, “TETRAHYDROTHIENO PYRIDINE DERIVATIVES AS DDRS INHIBITORS” (CHIESI FARMACEUTICI S.P.A., priority 2021, published 2024):

Experiments:
DDR2 [1] = biological target: T1, DDR2 (Homo sapiens (Human), UniProt Q16832); experiment: DDR2 binding assay (LanthaScreen Europium Kinase Binding assay); settings: potency class, read-out: Ki DDR2
Description: (§1) DDR1 and DDR2 binding assays were performed using Life Technologies LanthaScreen™ Europium Kinase Binding assay. The compounds were incubated with 5 nM DDR1 (Carna Biosciences) or 5 nM DDR2 (Life Technologies) for 1 hour at room temperature in white 384-well OptiPlate (PerkinElmer), containing 20 nM or 10 nM Kinase Tracer 178 respectively and 2 nM Europium labelled anti-GST antibody (Life Technologies) in assay buffer (50 mM HEPES pH 7.5, 10 mM MgCl2, 1 mM EGTA and 0.01% BRIJ35).
(§2) The ratio of fluorescence emission 665 nm/615 nm after excitation at 340 nm was obtained using the Tecan Spark 20M plate reader. IC50 values were determined in GraphPad Prism 7.0 software, using 4 parameter model: log(inhibitor) vs. response. IC50 values were converted in Ki using the Cheng-Prusoff equation (Ki=IC50/(1+[Tracer]/Kd).

DDR1 [2] = biological target: T2, DDR1 (Homo sapiens (Human), UniProt Q08345); experiment: DDR1 cell based assay (PathHunter U2OS DDR1 assay); settings: U2OS-DDR1 cells, Type II Collagen stimulation, potency class
T2 sequence (Q08345 19-913): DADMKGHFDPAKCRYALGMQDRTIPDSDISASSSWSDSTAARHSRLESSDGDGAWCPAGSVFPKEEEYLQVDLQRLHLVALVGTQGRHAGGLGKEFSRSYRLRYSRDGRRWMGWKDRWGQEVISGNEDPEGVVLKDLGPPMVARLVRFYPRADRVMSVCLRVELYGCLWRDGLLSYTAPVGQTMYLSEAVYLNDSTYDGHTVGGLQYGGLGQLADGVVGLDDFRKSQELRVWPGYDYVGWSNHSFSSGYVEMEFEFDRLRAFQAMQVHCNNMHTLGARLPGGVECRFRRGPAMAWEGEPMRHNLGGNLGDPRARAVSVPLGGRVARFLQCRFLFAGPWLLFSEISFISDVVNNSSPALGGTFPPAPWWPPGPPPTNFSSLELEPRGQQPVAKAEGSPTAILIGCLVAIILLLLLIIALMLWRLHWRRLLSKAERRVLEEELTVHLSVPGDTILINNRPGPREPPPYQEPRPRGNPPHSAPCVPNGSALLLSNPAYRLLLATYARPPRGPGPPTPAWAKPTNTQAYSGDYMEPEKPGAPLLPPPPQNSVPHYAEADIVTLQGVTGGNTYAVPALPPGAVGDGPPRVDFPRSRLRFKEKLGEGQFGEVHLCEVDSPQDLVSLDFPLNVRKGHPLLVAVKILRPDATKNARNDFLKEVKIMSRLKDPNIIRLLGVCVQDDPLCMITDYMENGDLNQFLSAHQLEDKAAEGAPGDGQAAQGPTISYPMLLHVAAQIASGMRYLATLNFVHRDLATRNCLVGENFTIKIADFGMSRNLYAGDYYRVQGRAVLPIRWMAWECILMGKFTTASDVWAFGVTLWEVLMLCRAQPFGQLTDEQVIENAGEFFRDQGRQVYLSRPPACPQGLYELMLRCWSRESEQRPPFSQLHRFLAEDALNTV
Description: The inhibition of DDR1 receptor activation by compounds was evaluated by PathHunter® U2OS DDR1 assay (Eurofins DiscoverX), according to the manufacturer's instructions. Briefly, U2OS-DDR1 cells were seeded in white 384-well plates at a density of 5000 cells/well and incubated for 2 hours at 37° C. and 5% CO2. Cells were then treated with compounds at different concentrations and incubated for 30 minutes, before stimulation with bovine Type II Collagen 20 μg/ml and incubation overnight at 37° C. and 5% CO2. PathHunter Detection Reagents were prepared according to the protocol provided by DiscoverX and 20 μl/well of this mix were added to each well. After incubating the plates for 1 hour at room temperature in the dark, luminescence signal was acquired with a plate reader. Raw data were normalized to vehicle control (0% for normalization) and positive control (100% for normalization; cells treated with 20 μg/ml collagen II) and IC50 parameters were calculated in GraphPad Prism 8.0 software, using sigmoidal dose-response curve fitting with variable slope.

DDR1 [3] = biological target: T2, DDR1; experiment: DDR1 binding assay (LanthaScreen Europium Kinase Binding assay); settings: potency class, read-out: Ki DDR1
Description: as §1, §2

DDR2 [4] = biological target: T1, DDR2; experiment: DDR2 cell based assay (phospho-ELISA in HEK293T-DDR2 recombinant cells); settings: DDR2 phosphorylation, Type II Collagen stimulation, potency class, read-out: IC50DDR2
Description: The inhibition of DDR2 phosphorylation by compounds was evaluated in HEK293T-DDR2 recombinant cells by phospho-ELISA assay. Briefly, HEK293T-DDR2 cells were seeded in poly-D-lysine-coated 24-well plates at a density of 250,000 cells/well and incubated for 1.5 hours at 37° C. and 5% CO2 in DMEM+10% FBS. After that, the medium was changed to serum-free DMEM and cells were incubated for 3 hours. Then. test compounds were added at different concentrations 30 minutes before stimulation with bovine Type II Collagen at […] for further 3 hours. For DDR2 phospho-ELISA assay (DuoSet IC Human Phospho-DDR2; R&D Systems), protein extracts were obtained by adding 60 μl/well of lysis buffer prepared according to the manufacturer's instructions. Protein concentration in the samples was determined by BCA assay and the levels of phospho-DDR2 were determined following R&D Systems indications. Raw data were normalized to maximal inhibition control (0% for normalization) and positive control (100% for normalization; cells treated with 20 μg/ml collagen II) and IC50 parameters were calculated in GraphPad Prism 8.0 software, using sigmoidal dose-response curve fitting with variable slope.

T1 sequence (Q16832 22-855): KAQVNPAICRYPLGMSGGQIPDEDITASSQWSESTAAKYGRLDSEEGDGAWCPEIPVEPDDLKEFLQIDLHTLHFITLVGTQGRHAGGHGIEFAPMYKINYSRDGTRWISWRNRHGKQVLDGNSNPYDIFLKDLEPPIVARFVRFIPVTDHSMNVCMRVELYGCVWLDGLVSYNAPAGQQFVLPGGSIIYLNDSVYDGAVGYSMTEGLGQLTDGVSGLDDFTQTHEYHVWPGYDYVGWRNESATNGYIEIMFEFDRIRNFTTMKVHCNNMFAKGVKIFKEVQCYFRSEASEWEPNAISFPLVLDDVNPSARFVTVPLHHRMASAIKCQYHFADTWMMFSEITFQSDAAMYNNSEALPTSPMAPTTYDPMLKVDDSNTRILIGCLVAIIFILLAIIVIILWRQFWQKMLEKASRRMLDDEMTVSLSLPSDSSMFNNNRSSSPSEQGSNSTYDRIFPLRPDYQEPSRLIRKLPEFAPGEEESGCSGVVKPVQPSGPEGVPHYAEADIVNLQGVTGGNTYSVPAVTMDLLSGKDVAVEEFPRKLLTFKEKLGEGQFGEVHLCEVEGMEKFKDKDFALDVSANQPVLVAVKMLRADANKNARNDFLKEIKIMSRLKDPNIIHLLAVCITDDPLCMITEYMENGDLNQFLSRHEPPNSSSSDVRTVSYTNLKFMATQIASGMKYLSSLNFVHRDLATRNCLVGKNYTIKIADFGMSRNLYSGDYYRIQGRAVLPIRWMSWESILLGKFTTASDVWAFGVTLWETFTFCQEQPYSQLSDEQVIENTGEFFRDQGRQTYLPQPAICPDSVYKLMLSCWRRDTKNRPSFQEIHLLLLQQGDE

SMILES	Ki (DDR2 [1])	IC50 (DDR1 [2])	Ki (DDR1 [3])	IC50 (DDR2 [4])
O=C(Nc1cc(F)cc(C(F)(F)F)c1)c1csc2c1CCN(Cc1cncnc1)C2 [Example 4, N-(3-fluoro-5-(trifluoromethyl)phenyl)-6-(pyrimidin-5-ylmethyl)-4,5,6,7-tetrahydrothieno[2,3-c]pyridine-3-carboxamide]	< 0.025 µM	< 0.025 µM	< 0.025 µM	< 0.025 µM
O=C(Nc1cccc(C(F)(F)F)c1)c1csc2c1CCN(Cc1cncnc1)C2 [Example 5, 6-(pyrimidin-5-ylmethyl)-N-(3-(trifluoromethyl)phenyl)-4,5,6,7-tetrahydrothieno[2,3-c]pyridine-3-carboxamide]	< 0.025 µM	0.025 to 0.05 µM	< 0.025 µM	< 0.025 µM
Cn1cc(Nc2ncc(CN3CCc4c(C(=O)Nc5cc(C(C)(C)C)nn5C)csc4C3)cn2)cn1 [Example 16, N-(3-(tert-butyl)-1-methyl-1H-pyrazol-5-yl)-6-((2-((1-methyl-1H-pyrazol-4-yl)amino)pyrimidin-5-yl)methyl)-4,5,6,7-tetrahydrothieno[2,3-c]pyridine-3-carboxamide]	< 0.025 µM	< 0.025 µM	< 0.025 µM	< 0.025 µM
Cn1cc(Nc2ncc(CN3CCc4c(C(=O)Nc5cccc(C(F)(F)F)c5)csc4C3)cn2)cn1 [Example 18, 6-((2-((1-methyl-1H-pyrazol-4-yl)amino)pyrimidin-5-yl)methyl)-N-(3-(trifluoromethyl)phenyl)-4,5,6,7-tetrahydrothieno[2,3-c]pyridine-3-carboxamide]	< 0.025 µM	< 0.025 µM	< 0.025 µM	< 0.025 µM
CN(C)CC(=O)Nc1cncc(CN2CCc3c(C(=O)Nc4cccc(C(F)(F)F)c4)csc3C2)c1 [Example 31, 6-((5-(2-(dimethylamino)acetamido)pyridin-3-yl)methyl)-N-(3-(trifluoromethyl)phenyl)-4,5,6,7-tetrahydrothieno[2,3-c]pyridine-3-carboxamide]	< 0.025 µM	0.025 to 0.05 µM	< 0.025 µM	0.025 to 0.05 µM
Nc1ncc(CN2CCc3c(C(=O)Nc4cc(F)cc(C(F)(F)F)c4)csc3C2)cn1 [Example 38, 6-((2-aminopyrimidin-5-yl)methyl)-N-(3-fluoro-5-(trifluoromethyl)phenyl)-4,5,6,7-tetrahydrothieno[2,3-c]pyridine-3-carboxamide]	< 0.025 µM	< 0.025 µM	< 0.025 µM	< 0.025 µM
CN(C)[C@@H]1CCN(Cc2cc(NC(=O)c3csc4c3CCN(Cc3cnc(N)nc3)C4)cc(C(F)(F)F)c2)C1 [Example 50, (R)-6-((2-aminopyrimidin-5-yl)methyl)-N-(3-((3-(dimethylamino)pyrrolidin-1-yl)methyl)-5-(trifluoromethyl)phenyl)-4,5,6,7-tetrahydrothieno[2,3-c]pyridine-3-carboxamide]	< 0.025 µM	0.025 to 0.05 µM	< 0.025 µM	
CN(C)[C@@H]1CCN(Cc2cc(NC(=O)c3csc4c3CCN(Cc3cncnc3C(C)(C)F)C4)cc(C(F)(F)F)c2)C1 [Example 51, (R)-N-(3-((3-(dimethylamino)pyrrolidin-1-yl)methyl)-5-(trifluoromethyl)phenyl)-6-((4-(2-fluoropropan-2-yl)pyrimidin-5-yl)methyl)-4,5,6,7-tetrahydrothieno[2,3-c]pyridine-3-carboxamide]	0.025 to 0.05 µM	0.05 to 0.08 µM	< 0.025 µM	
COc1ncncc1CN1CCc2c(C(=O)Nc3cc(CN4CC[C@@H](N(C)C)C4)cc(C(F)(F)F)c3)csc2C1 [Example 52, (R)-N-(3-((3-(dimethylamino)pyrrolidin-1-yl)methyl)-5-(trifluoromethyl)phenyl)-6-((4-methoxypyrimidin-5-yl)methyl)-4,5,6,7-tetrahydrothieno[2,3-c]pyridine-3-carboxamide]	< 0.025 µM	0.05 to 0.08 µM	< 0.025 µM	
CN(C)[C@@H]1CCN(Cc2cc(NC(=O)c3csc4c3CCN(Cc3cncnc3OC3CC3)C4)cc(C(F)(F)F)c2)C1 [Example 53, (R)-6-((4-cyclopropoxypyrimidin-5-yl)methyl)-N-(3-((3-(dimethylamino)pyrrolidin-1-yl)methyl)-5-(trifluoromethyl)phenyl)-4,5,6,7-tetrahydrothieno[2,3-c]pyridine-3-carboxamide]	< 0.025 µM	0.025 to 0.05 µM	< 0.025 µM	
CN(C)[C@@H]1CCN(Cc2cc(NC(=O)c3csc4c3CCN(Cc3cncc(-c5cnn(C)c5)c3)C4)cc(C(F)(F)F)c2)C1 [Example 54, (R)-N-(3-((3-(dimethylamino)pyrrolidin-1-yl)methyl)-5-(trifluoromethyl)phenyl)-6-((5-(1-methyl-1H-pyrazol-4-yl)pyridin-3-yl)methyl)-4,5,6,7-tetrahydrothieno[2,3-c]pyridine-3-carboxamide]	< 0.025 µM	0.025 to 0.05 µM	< 0.025 µM	
CN(C)Cc1cc(NC(=O)c2csc3c2CCN(Cc2cnc(N)nc2)C3)cc(C(F)(F)F)c1 [Example 55, 6-((2-aminopyrimidin-5-yl)methyl)-N-(3-((dimethylamino)methyl)-5-(trifluoromethyl)phenyl)-4,5,6,7-tetrahydrothieno[2,3-c]pyridine-3-carboxamide]	< 0.025 µM	0.025 to 0.05 µM	< 0.025 µM	
CN(C)Cc1ccc(NC(=O)c2csc3c2CCN(Cc2cnc(N)nc2)C3)cc1C(F)(F)F [Example 56, 6-((2-aminopyrimidin-5-yl)methyl)-N-(4-((dimethylamino)methyl)-3-(trifluoromethyl)phenyl)-4,5,6,7-tetrahydrothieno[2,3-c]pyridine-3-carboxamide]	0.025 to 0.05 µM	0.025 to 0.05 µM	< 0.025 µM	
CN(C)Cc1cc(NC(=O)c2csc3c2CCN(Cc2cnc(N)nc2)C3)cc(C(F)(F)F)n1 [Example 57, 6-((2-aminopyrimidin-5-yl)methyl)-N-(2-((dimethylamino)methyl)-6-(trifluoromethyl)pyridin-4-yl)-4,5,6,7-tetrahydrothieno[2,3-c]pyridine-3-carboxamide]	0.025 to 0.05 µM	0.025 to 0.05 µM	< 0.025 µM	
N#Cc1cc(NC(=O)c2csc3c2CCN(Cc2cnc(N)nc2)C3)cc(C(F)(F)F)c1 [Example 59, 6-((2-aminopyrimidin-5-yl)methyl)-N-(3-cyano-5-(trifluoromethyl)phenyl)-4,5,6,7-tetrahydrothieno[2,3-c]pyridine-3-carboxamide]	< 0.025 µM	< 0.025 µM	< 0.025 µM	
Nc1ncc(CN2CCc3c(C(=O)Nc4cncc(OC(F)(F)F)c4)csc3C2)cn1 [Example 60, 6-((2-aminopyrimidin-5-yl)methyl)-N-(5-(trifluoromethoxy)pyridin-3-yl)-4,5,6,7-tetrahydrothieno[2,3-c]pyridine-3-carboxamide]	< 0.025 µM	< 0.025 µM	< 0.025 µM	
Nc1ncc(CN2CCc3c(C(=O)Nc4ccc(Cl)c(C(F)(F)F)c4)csc3C2)cn1 [Example 61, 6-((2-aminopyrimidin-5-yl)methyl)-N-(4-chloro-3-(trifluoromethyl)phenyl)-4,5,6,7-tetrahydrothieno[2,3-c]pyridine-3-carboxamide]	< 0.025 µM	< 0.025 µM	< 0.025 µM	
CC(C)(c1cc(NC(=O)c2csc3c2CCN(Cc2cnc(N)nc2)C3)no1)C(F)(F)F [Example 62, 6-((2-aminopyrimidin-5-yl)methyl)-N-(5-(1,1,1-trifluoro-2-methylpropan-2-yl)isoxazol-3-yl)-4,5,6,7-tetrahydrothieno[2,3-c]pyridine-3-carboxamide]	< 0.025 µM	< 0.025 µM	< 0.025 µM	
COc1cncc(CN2CCc3c(C(=O)Nc4cc(C(C)(C)C)no4)csc3C2)c1 [Example 65, N-(3-(tert-butyl)isoxazol-5-yl)-6-((5-methoxypyridin-3-yl)methyl)-4,5,6,7-tetrahydrothieno[2,3-c]pyridine-3-carboxamide]	< 0.025 µM	0.025 to 0.05 µM	< 0.025 µM	
